Measured values: patent US11884650B2, “Substituted heterocyclic compounds” (BRISTOL-MYERS SQUIBB COMPANY, priority 2021, dated 2024)

What was measured:
[1] = Brain Penetration In Vivo Assay; design: species or system C57BL6 wild-type mice; conditions: C57BL6, brain and plasma, 10 mg/kg, mouse, 10 mpk, po, read-out: Ratio of exposure in brain to plasma
Experimental: Brain Penetration In Vivo Assay
A pharmacokinetic study was performed using C57BL6 wild-type mice (n=3 per experiment) to determine brain and plasma exposure of compounds of the invention. The compound was administered orally in a solution of 5% ETHANOL; 90% PEG 300; 5% TPGS at 5 […] for a final concentration. of 10 mg/kg. Mice were euthanized 1 hour post-dose and plasma and brain were collected and frozen for analysis. Brain tissues were homogenized in a 1:1 volume of blank C57BL6 mouse plasma. Concentrations of the compound in plasma and brain homogenate were determined by LC-MS analysis.

in vitro = conditions: human, Caco-2, pH 7.4
[2] = system: IFNα-induced pSTAT5 in human whole blood (CD3 positive population); assay: IFNα-Induced STAT Phosphorylation in Human Whole Blood; type: cell-based; conditions: 1 h incubation with compound, 1000 U/mL IFNα A/D for 15 min, read-out: Human Whole blood IFNa pSTAT5 IC50
Experimental: IFNα-Induced STAT Phosphorylation in Human Whole Blood
After an hour long incubation with compound, human whole blood (drawn with ACD-A as anticoagulant) was stimulated with 1000 U/mL recombinant human IFNα A/D (R&D Systems 11200-2) for 15 min. The stimulation was stopped by adding Fix/Lyse buffer (BD 558049). Cells were stained with a CD3 FITC antibody (BD 555916), washed, and permeabilized on ice using Perm III buffer (BD 558050). Cells were then stained with an Alexa-Fluor 647 pSTAT5 (pY694) antibody (BD 612599) for 60 min prior to analysis on the iQue Plus. The amount of pSTAT5 expression was quantitated by median fluorescence intensity after gating on the CD3 positive population.

Caco-2 cells = conditions: human, Caco-2, 2 h, 3 μM, pH 7.4

## CCC(=O)c1cnc(NC(=O)C2CC2)cc1Nc1nccc(-c2ncn(C)n2)c1OC [A, reference compound]
[1]
  Kp at 1 h: 0.14

## CCC(=O)c1cnc(NC(=O)C2CC2)cc1Nc1cccc(-c2ncn(C)n2)c1OC [B, reference compound]
[1]
  Kp at 1 h: 0.05

## CCC(=O)c1cnc(NC(=O)C2CC2)cc1Nc1nccc(-c2cnn(C)n2)c1OC [Example 1, N-(4-((3-methoxy-4-(2-methyl-2H-1,2,3-triazol-4-yl)pyridin-2-yl)amino)-5-propionylpyridin-2-yl)cyclopropanecarboxamide]
In vitro
  Papp A→B at 2 h, 3 μM: 66.3 ×10⁻⁶ cm/s
  efflux ratio at 2 h, 3 μM: 0.1
[1]
  Kp at 1 h: 3.1
[2]
  IC50: 37 nM

## CCC(=O)c1cnc(NC(=O)C2CC2)cc1Nc1nccc(-c2cnn(C3CC3)n2)c1OC [Example 2, N-(4-((3-methoxy-4-(2-cyclopropyl-2H-1,2,3-triazol-4-yl)pyridin-2-yl)amino)-5-propionylpyridin-2-yl)cyclopropanecarboxamide]
In vitro
  Papp A→B at 2 h, 3 μM: 18 ×10⁻⁶ cm/s
  efflux ratio at 2 h, 3 μM: 0.2
[2]
  IC50: 400 nM

## CCC(=O)c1cnc(NC(=O)C2CC2)cc1Nc1cccc(-c2cnn(C)n2)c1OC [Example 3, N-(4-((2-methoxy-3-(2-methyl-2H-1,2,3-triazol-4-yl)phenyl)amino)-5-propionylpyridin-2-yl)cyclopropanecarboxamide]
In vitro
  Papp A→B at 2 h, 3 μM: 18.3 ×10⁻⁶ cm/s
  efflux ratio at 2 h, 3 μM: 0.5
[1]
  Kp at 1 h: 3
[2]
  IC50: 460 nM

## CCC(=O)c1cnc(NC(=O)C2CC2)cc1Nc1ccc(F)c(-c2cnn(C)n2)c1OC [Example 4, N-(4-((4-fluoro-2-methoxy-3-(2-methyl-2H-1,2,3-triazol-4-yl)phenyl)amino)-5-propionylpyridin-2-yl)cyclopropanecarboxamide]
In vitro
  Papp A→B at 2 h, 3 μM: 54.5 ×10⁻⁶ cm/s
  efflux ratio at 2 h, 3 μM: 0.4
[2]
  IC50: 280 nM

## N-(4-((3-fluoro-2-methoxy-3-(2-methyl-2H-1,2,3-triazol-4-yl)phenyl)amino)-5-propionylpyridin-2-yl)cyclopropanecarboxamide [Example 5]
Caco-2 cells
  Caco-2 AB: 258 nm/s
[2]
  IC50: 710 nM

## N-(4-((3-methyl-2-methoxy-3-(2-methyl-2H-1,2,3-triazol-4-yl)phenyl)amino)-5-propionylpyridin-2-yl)cyclopropanecarboxamide [Example 6]
Caco-2 cells
  Caco-2 AB: 152 nm/s
[2]
  IC50: 770 nM
